Activity calls are given as the source filed them.
Tests used:
[1] = M. tuberculosis growth inhibition, HTS (AID 449762); type: functional
[2] = HEp-2 cell cytotoxicity, dose response, cytotoxicity control for RSV inhibitor project, HTS (AID 2410); type: functional; details: human respiratory syncytial virus
[3] = microbe, parasite or virus in culture; type: functional; details: Mycobacterium tuberculosis
[4] = control 3'UTR Renilla luciferase suppression, dose response, counter-screen for Shn3 inhibitor project, cell-based, Clone20-Shn3RL, cherry-picked (AID 624133); type: functional
A-375 = test: MITF: Counter assay: A375 proliferation Measured in Cell-Based System Using Plate Reader - 2084-03_Inhibitor_Dose_DryPowder_Activity. [Related pubchem assays (depositor defined):AID488944]; type: functional; details: Homo sapiens
[5] = Shn3 3'UTR reporter inhibitors, dose response, cell-based, Clone20 osteoblasts, firefly luciferase, cherry-picked (AID 624132); type: functional;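 also: firefly luciferase luminescence from reporter carrying the Shn3 3'UTR in osteoblasts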
[6] = target: T1, Microphthalmia-associated transcription factor (Homo sapiens, UniProt O75030); test: TRPM1 promoter luciferase signal decrease, dose response, MITF inhibitor project, cell-based, SK-MEL-5, cherry-picked, set 3 (AID 493073); type: functional
T1 sequence (O75030 whole entry): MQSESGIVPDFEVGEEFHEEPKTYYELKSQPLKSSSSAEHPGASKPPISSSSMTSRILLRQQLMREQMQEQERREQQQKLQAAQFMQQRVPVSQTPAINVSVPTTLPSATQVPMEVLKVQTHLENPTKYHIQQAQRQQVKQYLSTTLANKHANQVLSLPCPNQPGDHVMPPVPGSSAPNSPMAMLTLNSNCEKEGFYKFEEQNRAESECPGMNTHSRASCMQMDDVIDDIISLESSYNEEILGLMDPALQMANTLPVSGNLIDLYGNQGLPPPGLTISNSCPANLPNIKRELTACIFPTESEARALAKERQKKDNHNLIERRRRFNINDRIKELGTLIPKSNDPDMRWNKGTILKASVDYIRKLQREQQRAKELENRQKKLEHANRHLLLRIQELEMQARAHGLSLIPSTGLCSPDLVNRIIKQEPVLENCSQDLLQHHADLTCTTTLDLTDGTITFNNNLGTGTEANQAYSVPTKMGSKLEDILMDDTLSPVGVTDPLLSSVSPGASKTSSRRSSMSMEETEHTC

[7] = HepG2 cell cytotoxicity, dose response, cytotoxicity control for Shn3 inhibitor project, CellTiter-Glo, cherry-picked (AID 624134); type: functional, cell-based
[8] = Vero cell cytotoxicity, dose response, cytotoxicity control for Vif-APOBEC3G degradation inhibitor project, Vero cells (AID 1117358); type: functional; details: Human immunodeficiency virus 1, Vero
[9] = target: Ubiquitin carboxyl-terminal hydrolase BAP1 (Homo sapiens, UniProt Q92560); test: BAP1 deubiquitinase inhibitors, dose response, biochemical (AID 714); type: functional
Chain of Ubiquitin carboxyl-terminal hydrolase BAP1 (Q92560 whole entry): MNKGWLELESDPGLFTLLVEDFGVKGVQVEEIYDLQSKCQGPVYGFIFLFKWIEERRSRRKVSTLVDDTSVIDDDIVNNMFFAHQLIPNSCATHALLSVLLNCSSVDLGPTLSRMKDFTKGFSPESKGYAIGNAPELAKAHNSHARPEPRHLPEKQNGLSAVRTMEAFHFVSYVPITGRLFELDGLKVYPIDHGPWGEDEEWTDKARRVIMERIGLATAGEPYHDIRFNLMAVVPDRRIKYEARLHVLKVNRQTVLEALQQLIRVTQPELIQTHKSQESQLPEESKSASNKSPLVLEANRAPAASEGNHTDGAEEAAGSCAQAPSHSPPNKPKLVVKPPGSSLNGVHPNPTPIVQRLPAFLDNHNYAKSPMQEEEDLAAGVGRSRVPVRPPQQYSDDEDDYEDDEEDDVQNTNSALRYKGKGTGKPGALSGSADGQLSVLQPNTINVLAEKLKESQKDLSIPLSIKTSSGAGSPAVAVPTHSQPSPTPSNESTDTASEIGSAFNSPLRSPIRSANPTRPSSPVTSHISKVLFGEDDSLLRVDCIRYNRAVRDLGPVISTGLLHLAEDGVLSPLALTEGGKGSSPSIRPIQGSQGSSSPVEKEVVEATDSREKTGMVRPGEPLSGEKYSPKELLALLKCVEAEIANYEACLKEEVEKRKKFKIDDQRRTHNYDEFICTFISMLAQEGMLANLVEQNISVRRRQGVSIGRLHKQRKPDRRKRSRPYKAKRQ

Transthyretin = Transthyretin (Homo sapiens, UniProt P02766); test: Luminescence-based cell-based high throughput dose response assay to identify activators of Transthyretin (TTR) transcription.; type: functional
Phospholipase D1 = Phospholipase D1 (Homo sapiens, UniProt Q13393); test: PLD1 Cellular Concentration Response Study.; type: functional
Chain of Phospholipase D1 (Q13393 whole entry): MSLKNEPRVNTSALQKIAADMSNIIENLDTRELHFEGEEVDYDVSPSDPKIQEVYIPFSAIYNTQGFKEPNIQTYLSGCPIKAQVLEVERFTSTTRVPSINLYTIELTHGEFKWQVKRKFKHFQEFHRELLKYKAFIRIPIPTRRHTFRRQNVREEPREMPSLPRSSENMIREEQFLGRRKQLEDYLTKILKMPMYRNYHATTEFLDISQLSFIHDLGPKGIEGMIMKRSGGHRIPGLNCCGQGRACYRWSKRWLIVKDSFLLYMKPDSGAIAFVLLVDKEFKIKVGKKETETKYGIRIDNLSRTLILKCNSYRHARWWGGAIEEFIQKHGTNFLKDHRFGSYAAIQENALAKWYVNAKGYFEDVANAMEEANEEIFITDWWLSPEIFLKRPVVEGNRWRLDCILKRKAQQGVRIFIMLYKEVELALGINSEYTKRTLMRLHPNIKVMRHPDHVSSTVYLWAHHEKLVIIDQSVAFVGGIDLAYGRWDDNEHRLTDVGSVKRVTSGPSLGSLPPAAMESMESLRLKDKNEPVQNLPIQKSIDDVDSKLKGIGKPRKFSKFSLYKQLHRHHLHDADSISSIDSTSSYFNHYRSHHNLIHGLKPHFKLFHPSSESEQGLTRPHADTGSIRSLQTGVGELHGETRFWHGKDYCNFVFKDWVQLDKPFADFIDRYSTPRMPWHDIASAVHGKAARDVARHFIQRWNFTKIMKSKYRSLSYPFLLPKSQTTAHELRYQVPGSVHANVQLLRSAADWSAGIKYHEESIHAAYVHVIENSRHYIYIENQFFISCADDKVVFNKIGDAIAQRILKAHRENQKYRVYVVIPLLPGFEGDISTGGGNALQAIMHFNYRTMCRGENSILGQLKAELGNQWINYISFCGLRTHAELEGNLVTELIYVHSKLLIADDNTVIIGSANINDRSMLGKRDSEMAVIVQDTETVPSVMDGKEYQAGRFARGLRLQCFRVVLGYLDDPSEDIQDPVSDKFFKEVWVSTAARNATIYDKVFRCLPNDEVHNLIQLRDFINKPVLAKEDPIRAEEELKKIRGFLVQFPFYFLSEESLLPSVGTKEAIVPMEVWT

Phospholipase D2 = Phospholipase D2 (Homo sapiens, UniProt O14939); test: PLD2 Cellular Concentration Response Study.; type: functional
Chain of Phospholipase D2 (O14939 whole entry): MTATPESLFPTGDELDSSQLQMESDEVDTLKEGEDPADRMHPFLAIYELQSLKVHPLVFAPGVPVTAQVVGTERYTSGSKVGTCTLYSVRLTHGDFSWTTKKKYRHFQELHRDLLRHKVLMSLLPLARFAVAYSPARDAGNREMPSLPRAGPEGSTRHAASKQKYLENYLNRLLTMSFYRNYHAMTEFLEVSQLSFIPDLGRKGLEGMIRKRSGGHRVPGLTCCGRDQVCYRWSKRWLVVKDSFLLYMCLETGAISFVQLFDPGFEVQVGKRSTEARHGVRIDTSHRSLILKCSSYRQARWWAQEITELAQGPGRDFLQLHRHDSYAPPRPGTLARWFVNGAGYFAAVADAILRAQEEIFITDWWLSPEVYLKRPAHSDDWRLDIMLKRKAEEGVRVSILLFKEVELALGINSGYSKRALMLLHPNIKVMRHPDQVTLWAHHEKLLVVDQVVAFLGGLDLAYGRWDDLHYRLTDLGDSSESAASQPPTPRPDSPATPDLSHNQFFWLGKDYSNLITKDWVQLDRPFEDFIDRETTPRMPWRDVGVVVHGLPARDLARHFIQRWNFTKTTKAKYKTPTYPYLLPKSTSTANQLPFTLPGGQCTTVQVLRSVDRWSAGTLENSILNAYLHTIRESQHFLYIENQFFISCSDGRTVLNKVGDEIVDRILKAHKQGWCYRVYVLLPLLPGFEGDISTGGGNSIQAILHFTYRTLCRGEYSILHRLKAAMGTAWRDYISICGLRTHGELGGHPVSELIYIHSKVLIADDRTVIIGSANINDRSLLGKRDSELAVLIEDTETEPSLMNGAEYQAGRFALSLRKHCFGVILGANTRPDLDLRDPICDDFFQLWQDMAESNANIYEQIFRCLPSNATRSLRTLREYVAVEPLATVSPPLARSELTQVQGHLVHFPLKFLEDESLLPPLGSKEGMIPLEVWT

[10] = PAX5 activity inhibitors, dose response, selectivity assay for PAX8 inhibitor project, cell-based, plate reader, dry powder samples (AID 743047); type: functional;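 also: HEK293 cells carrying a Pax5 driven CD19 promoter luciferase reporter; potency of inhibitors that lower reporter luminescence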
[11] = NIH:OVCAR-3 ovarian cancer cell cytotoxicity, dose response, PAX8 inhibitor project, plate reader, dry powder samples (AID 743044); type: functional, cell-based
Paired box protein Pax-8 = Paired box protein Pax-8 (Homo sapiens, UniProt Q06710); test: inhibitors of PAX8-driven TPO luciferase reporter, dose response, RMG-I cells, cherry-pick (AID 687027); type: functional, cell-based;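 also: luciferase reporter driven by Pax8 target thyroperoxidase promoter measured by SteadyGlo luminescence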
[12] = cytotoxicity in OVCAR4 cells, dose response, cytotoxicity control for PAX8 inhibitor project, cell-based, plate reader, dry powder, SA11 (AID 743150); type: functional; details: OVCAR-4
[13] = cytotoxicity dependent on PAX8, dose response, cell-based, plate reader, dry powder (AID 743049); type: functional
[14] = cytotoxicity in OV-90 ovarian cancer cells, dose response, PAX8 inhibitor project, cell-based, plate reader, dry powder, SA8 (AID 743149); type: functional
[15] = cytotoxicity in COV434 cells, dose response, cytotoxicity control for PAX8 inhibitor project, cell-based, plate reader, dry powder, SA7 (AID 743145); type: functional
[16] = cytotoxicity in COV362 ovarian cancer cells, dose response, cytotoxicity control for PAX8 inhibitor project, cell-based, plate reader, dry powder, SA12 (AID 743144); type: functional
[17] = PAX2 cell-based inhibition, dose response, selectivity assay for PAX8 inhibitor project, plate reader, dry powder samples (AID 743048); type: functional;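 also: HEK293 cells carrying a WT1 promoter luciferase reporter driven by expressed Pax2; potency is for inhibition of Pax2 driven reporter signal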
[18] = target: T2, Tyrosine-protein phosphatase non-receptor type 11 (Homo sapiens, UniProt Q06124); test: SHP2 phosphatase inhibition, dose response, selectivity assay for STEP inhibitor project, biochemical (AID 602367); type: functional; details: read-out: IC50_Mean
T2 sequence (Q06124 whole entry): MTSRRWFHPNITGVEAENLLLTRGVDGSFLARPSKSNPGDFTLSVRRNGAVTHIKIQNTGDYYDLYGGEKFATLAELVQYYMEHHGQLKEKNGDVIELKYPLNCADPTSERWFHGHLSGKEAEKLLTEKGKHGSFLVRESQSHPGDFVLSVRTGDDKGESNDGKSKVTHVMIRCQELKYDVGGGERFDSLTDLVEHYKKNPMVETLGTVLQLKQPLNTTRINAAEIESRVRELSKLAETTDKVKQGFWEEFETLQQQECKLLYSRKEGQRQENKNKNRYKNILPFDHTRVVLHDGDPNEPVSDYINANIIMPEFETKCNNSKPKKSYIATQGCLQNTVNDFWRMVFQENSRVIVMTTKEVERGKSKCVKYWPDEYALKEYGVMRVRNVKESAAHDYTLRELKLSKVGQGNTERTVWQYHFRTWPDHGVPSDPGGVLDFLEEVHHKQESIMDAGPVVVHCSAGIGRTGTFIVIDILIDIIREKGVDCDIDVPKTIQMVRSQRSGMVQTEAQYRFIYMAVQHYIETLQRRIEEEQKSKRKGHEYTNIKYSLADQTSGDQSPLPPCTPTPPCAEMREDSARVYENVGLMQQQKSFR

[19] = target: Dual specificity protein phosphatase 3 (Homo sapiens, UniProt P51452); test: VHR phosphatase inhibition, dose response, selectivity assay for STEP inhibitor project, biochemical (AID 602374); type: functional; details: read-out: IC50_Mean
[20] = target: T3, Tyrosine-protein phosphatase non-receptor type 5 (Homo sapiens, UniProt P54829); test: STEP phosphatase inhibitors, confirmation, biochemical, fluorescence intensity, uHTS hits (AID 602372); type: functional; details: read-out: IC50_Mean
T3 sequence (P54829 whole entry): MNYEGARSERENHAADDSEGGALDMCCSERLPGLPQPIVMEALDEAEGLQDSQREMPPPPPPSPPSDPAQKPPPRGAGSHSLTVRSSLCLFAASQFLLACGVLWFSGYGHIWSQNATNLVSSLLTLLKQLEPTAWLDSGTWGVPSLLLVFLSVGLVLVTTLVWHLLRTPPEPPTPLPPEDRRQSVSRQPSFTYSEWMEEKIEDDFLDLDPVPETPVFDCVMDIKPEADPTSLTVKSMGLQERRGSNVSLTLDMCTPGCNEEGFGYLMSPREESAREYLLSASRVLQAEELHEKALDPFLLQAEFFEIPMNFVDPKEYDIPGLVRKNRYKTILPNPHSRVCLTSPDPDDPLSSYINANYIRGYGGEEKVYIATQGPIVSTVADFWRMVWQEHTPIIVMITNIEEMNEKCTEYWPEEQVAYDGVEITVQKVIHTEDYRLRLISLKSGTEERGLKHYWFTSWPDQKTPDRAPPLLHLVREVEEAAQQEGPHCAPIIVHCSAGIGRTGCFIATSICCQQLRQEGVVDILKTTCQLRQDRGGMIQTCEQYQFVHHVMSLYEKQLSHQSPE

[21] = target: Tyrosine-protein phosphatase non-receptor type 22 (Homo sapiens, UniProt Q9Y2R2); test: PTPN22 phosphatase inhibition, dose response, selectivity assay for STEP inhibitor project, biochemical (AID 624241); type: functional
Chain of Tyrosine-protein phosphatase non-receptor type 22 (Q9Y2R2 whole entry): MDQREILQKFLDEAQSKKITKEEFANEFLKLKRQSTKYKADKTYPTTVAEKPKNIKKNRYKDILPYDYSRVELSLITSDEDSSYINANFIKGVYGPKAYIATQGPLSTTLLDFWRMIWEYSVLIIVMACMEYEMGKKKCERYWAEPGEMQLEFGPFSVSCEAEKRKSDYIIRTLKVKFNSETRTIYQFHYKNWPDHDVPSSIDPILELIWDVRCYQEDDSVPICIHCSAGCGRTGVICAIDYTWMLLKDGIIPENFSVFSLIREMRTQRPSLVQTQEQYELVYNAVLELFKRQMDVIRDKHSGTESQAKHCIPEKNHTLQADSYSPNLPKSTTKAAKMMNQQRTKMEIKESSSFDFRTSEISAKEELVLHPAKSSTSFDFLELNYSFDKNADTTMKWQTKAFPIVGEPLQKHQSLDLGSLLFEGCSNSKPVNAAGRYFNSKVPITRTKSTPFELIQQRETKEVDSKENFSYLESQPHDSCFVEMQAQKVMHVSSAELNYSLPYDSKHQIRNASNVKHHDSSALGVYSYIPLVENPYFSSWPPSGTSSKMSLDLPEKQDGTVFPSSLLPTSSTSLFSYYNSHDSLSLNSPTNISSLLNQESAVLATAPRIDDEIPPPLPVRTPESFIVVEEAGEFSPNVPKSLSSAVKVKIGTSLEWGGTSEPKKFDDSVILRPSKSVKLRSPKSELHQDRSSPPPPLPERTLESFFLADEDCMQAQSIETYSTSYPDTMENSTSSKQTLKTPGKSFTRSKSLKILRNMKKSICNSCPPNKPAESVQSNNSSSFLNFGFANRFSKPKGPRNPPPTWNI

Ephrin type-A receptor 4 = Ephrin type-A receptor 4 (Mus musculus, UniProt Q03137); test: inhibitors of EphA4 binding to KYL peptide, primary screen, biochemical, colorimetric, mouse EphA4 (AID 689); type: functional
Chain of Ephrin type-A receptor 4 (Q03137 whole entry): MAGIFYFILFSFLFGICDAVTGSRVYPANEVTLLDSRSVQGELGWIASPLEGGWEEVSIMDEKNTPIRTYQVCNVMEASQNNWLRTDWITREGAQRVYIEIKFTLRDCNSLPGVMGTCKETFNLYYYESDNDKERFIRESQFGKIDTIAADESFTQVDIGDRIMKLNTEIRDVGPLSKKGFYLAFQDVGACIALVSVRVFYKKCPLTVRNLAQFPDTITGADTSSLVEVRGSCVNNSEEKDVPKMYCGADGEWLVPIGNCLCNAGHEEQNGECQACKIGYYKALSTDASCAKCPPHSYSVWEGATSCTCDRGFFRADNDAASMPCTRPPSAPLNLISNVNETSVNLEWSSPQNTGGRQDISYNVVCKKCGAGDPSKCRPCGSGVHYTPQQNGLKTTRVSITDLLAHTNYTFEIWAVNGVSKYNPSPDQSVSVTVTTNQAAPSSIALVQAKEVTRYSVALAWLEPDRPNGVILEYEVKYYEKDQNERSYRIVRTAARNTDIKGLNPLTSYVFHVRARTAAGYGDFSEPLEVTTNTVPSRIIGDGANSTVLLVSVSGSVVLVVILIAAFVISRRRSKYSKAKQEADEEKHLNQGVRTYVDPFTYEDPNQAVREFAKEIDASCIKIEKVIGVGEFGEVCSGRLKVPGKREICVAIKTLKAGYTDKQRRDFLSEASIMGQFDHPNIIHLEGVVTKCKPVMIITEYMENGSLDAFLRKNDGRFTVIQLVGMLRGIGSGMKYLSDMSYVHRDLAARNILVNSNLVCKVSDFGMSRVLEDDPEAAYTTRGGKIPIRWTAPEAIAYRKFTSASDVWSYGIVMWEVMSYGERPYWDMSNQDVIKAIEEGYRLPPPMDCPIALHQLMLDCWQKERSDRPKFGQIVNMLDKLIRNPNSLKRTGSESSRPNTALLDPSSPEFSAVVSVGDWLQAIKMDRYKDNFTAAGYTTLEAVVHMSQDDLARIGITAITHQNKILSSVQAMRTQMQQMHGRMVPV

[22] = Plasmodium falciparum Dd2 Sybr green parasite growth Measured in Cell-Based and Microorganism Combination System Using Plate Reader - 2153-01_Inhibitor_Dose_DryPowder_Activity_Set3.; type: functional
[23] = HIF luciferase reporter inhibitors, dose response, ARNT-TACC3 inhibitor project, cell-based, dry powder samples, luminescence, 2158-07 (AID 720561); type: functional
[24] = inhibitors of HRE-driven luciferase expression, dose response, ARNT-TACC3 inhibitor project, HeLa cells, luminescence, dry powder samples, 2158-08 (AID 720560); type: functional, cell-based
[25] = THP-1 cell cytotoxicity, dose response, cytotoxicity control for Vif-APOBEC3G degradation inhibitor project, THP-1 cells (AID 1117359); type: functional; details: Human immunodeficiency virus 1, THP-1
[26] = target: Sphingosine 1-phosphate receptor 2 (Homo sapiens, UniProt O95136); test: Dose Response Cell Based Assay for Agonists of the S1P2 Receptor. [Related pubchem assays: 729, 736, 843 ]; type: functional
Fibrinogen beta chain [27] = target: T4, Fibrinogen beta chain (Homo sapiens, UniProt P02675); test: Fluorescence polarization-based biochemical high throughput dose response assay to identify inhibitors that disrupt the binding of a cyclic peptide (Tn6) to the fibrin proteolytic product D-Dimer and fragment E complex [DD(E )].
T4 sequence (P02675 whole entry, the tested form may be a part): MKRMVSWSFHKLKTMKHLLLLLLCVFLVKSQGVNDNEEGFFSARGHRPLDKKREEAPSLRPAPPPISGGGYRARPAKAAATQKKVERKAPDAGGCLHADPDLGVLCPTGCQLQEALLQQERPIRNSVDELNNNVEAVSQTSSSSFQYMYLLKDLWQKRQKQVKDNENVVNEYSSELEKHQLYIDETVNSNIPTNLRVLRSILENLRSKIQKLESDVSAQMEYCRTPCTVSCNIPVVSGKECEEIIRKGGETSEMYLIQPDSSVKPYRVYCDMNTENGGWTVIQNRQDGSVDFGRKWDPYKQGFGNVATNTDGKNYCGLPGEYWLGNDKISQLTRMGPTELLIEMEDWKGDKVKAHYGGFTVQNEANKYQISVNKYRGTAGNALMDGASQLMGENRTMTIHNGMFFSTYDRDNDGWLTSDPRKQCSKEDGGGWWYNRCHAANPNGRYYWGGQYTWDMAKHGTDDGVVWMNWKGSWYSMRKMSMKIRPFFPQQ

Fibrinogen beta chain [28] = target: T4, Fibrinogen beta chain; test: Fluorescence polarization-based biochemical high throughput dose response assay to identify inhibitors that disrupt the binding of a cyclic peptide (Tn7) to the fibrin proteolytic product D-Dimer and fragment E complex [DD(E )].
[29] = target: T5, Aryl hydrocarbon receptor (Homo sapiens, UniProt P35869); test: Luminescence-based cell-based high throughput dose response assay for activators of the Aryl Hydrocarbon Receptor (AHR). [Related pubchem assays: 2796 (Primary screen (AHR activators in singlicate)), 2845 (Confirmation screen (AHR activators in triplicate)), 434939 (Counterscreen (PXR activators in triplicate)), 2804 (Summary (AHR activators))]; type: ADME
T5 sequence (P35869 whole entry): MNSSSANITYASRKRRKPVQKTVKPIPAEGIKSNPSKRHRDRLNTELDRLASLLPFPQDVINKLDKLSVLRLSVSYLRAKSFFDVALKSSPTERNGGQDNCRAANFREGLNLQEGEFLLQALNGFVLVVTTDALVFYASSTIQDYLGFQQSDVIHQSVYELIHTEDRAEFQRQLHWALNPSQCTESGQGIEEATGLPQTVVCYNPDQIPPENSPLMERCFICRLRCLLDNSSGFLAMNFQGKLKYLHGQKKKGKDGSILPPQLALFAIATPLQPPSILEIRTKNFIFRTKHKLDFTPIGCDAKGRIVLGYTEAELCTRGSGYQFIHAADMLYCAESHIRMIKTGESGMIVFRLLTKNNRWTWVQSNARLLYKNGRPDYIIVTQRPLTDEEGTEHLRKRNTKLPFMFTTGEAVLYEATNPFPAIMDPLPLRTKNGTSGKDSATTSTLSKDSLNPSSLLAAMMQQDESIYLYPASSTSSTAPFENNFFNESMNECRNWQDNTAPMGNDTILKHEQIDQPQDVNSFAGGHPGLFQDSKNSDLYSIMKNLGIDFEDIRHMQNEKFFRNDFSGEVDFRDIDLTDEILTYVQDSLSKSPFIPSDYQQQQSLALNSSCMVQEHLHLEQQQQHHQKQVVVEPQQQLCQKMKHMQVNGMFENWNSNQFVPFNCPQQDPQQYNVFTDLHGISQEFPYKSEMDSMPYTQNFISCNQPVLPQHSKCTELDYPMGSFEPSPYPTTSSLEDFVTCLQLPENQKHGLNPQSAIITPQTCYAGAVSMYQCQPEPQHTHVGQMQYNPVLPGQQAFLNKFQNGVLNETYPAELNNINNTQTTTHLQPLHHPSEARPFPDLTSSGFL

COC(=O)C1=C(C)NC(=O)/C1=C\c1cc(C)n(-c2cccc(C)c2)c1C
IC50 [1]: > 100 µM (active) | CC50 [2]: 16 µM (active) | CC50 [3]: > 40 µM (active)

COc1cccc(CNCCc2c[nH]c3ccccc23)c1OCc1ccccc1
AC50 [4]: 9.39 µM (active) | AC50 (A-375): 36.2 µM (active) | AC50 [5]: 4.09 µM (active) | AC50 [6]: 14.4 µM (active) | AC50 [7]: 11.8 µM (active) | CC50 [8]: > 40 µM (active)

O=c1[nH]c(SCc2ccc(F)cc2)nc2c1cnn2-c1ccc(F)cc1
IC50 [9]: > 50 µM (not active)

N=c1ccn(CC(=O)NC(N)=O)c2ccccc12
EC50 (Transthyretin): > 167 µM (inactive)

O=C(NCCN1CCC2(CC1)C(=O)NCN2C(=O)C1CCC1)c1ccc2ccccc2c1
IC50 (Phospholipase D1): 4 µM (active) | IC50 (Phospholipase D2): 0.32 µM (active)

CC(C)CC1NC(=S)N(Cc2ccccc2)C1=O (stereo not given)
AC50 [10]: 43 µM (active) | AC50 [11]: 94 µM (active) | AC50 (Paired box protein Pax-8): 6.46 µM (active) | AC50 [12]: 15.9 µM (active) | AC50 [13]: 46.8 µM (active) | AC50 [14]: 21.4 µM (active) | AC50 [15]: 18.8 µM (active) | AC50 [16]: 33.9 µM (active) | AC50 [17]: 29.2 µM (active)

Cc1ccc(-n2c(C)nc3oc4ccccc4c(=O)c3c2=O)cc1
IC50 [18]: 1.13 µM (active) | IC50 [19]: 0.779 µM (active) | IC50 [20]: 14.4 µM (active) | IC50 [21]: 14 µM (active) | IC50 (Ephrin type-A receptor 4): > 100 µM (not active)

Cc1noc(C)c1NC(=O)Nc1ccc2c(c1)C(=O)N([C@@H](C)CN(C)C)C[C@@H](C)[C@H](CN(C)S(=O)(=O)c1ccc(F)cc1)OCCCC[C@H](C)O2
AC50 [22]: 0.0289 µM (active)

CC(C)CNc1ccnc(NCc2csc(-c3ccccc3)n2)n1
AC50 [23]: 5.54 µM (active) | AC50 [24]: 4.74 µM (active)

CCCCCC(=O)N1C[C@@H](n2cc(C3CC3)nn2)[C@H](O)C[C@@H]1c1ccc(C)cc1
CC50 [25]: > 40 µM (active)

CC(C)CCNC(=O)c1c(N)n(Cc2ccc3c(c2)OCO3)c2nc3ccccc3nc12
EC50 [26]: 1.69 µM (active)

C#CCn1cc(/C=N/NC(=O)c2cc3ccccc3o2)c2ccccc21
IC50 (Fibrinogen beta chain [27]): > 83.3 µM (inactive) | IC50 (Fibrinogen beta chain [28]): > 83.3 µM (inactive) | EC50 [29]: 0.544 µM (active)
